In paper PMC11172375, “Preclinical Evaluation of Biodistribution and Toxicity of [^211At]PSMA-5 in Mice and Primates for the Targeted Alpha Therapy against Prostate Cancer” (International Journal of Molecular Sciences, 2024):

Legend:
[1] = Biodistribution in ICR mice; type: in vivo
Protocol: (§1) [^211At]PSMA-5 was administered intravenously to 25 mice, and its biodistribution was evaluated. For the toxicity study, three doses of [^211At]PSMA-5 (5, 12, and 35 MBq/kg, single dose) or saline were intravenously administered to 10 mice/group for the main evaluation point on day 1, and 5-mice/group for recovery evaluation on day 14, adhering to the ICH M3 (R2) guidelines. The dosage was determined based on our previous study using [^211At]NaAt. The monkeys were monitored for 24 h post-administration of [^211At]PSMA-5 (9 MBq/kg).
Monkeys were anesthetized with intramuscular administration of ketamine (10 mg/kg) and xylazine (0.5 mg/kg) with isoflurane inhalation anesthesia. Planar and Single Photon Emission Computed Tomography (SPECT) imaging was performed in monkeys using a γ-camera system (E-cam, Siemens, Erlangen, Germany) immediately after administration to 1 h and at 3 and 24 h post-administration of [^211At]PSMA-5 (9 MBq/kg), targeting the X-rays emitted from the daughter nuclide ^211Po (energy window: 79 keV ± 20%). Subsequent image analysis was performed by setting the regions of interest using Osirix MD software (Version 13, Pixmeo SARL, Bernex, Switzerland) and PMOD software (Version 3.903, PMOD Technologies, Fällanden, Switzerland). Blood samples were obtained pre-administration and at 1, 3, and 24 h post-administration, followed by euthanasia via bloodletting at 24 h.
Urine and feces samples were collected at each time point. Following euthanasia, the brain, thyroid gland, salivary gland, lungs, heart, liver, kidney, spleen, pancreas, stomach, small intestine, large intestine, bladder, testes, and prostate tissues were collected. Organ weights and radiation doses were measured using a γ-counter (model: 2480Wizard2, PerkinElmer) and γ-camera system (E-cam) by appropriate cross-calibration.

[2] = Biodistribution in cynomolgus monkey (planar/SPECT imaging, 24 h autopsy); type: in vivo; conditions: 9 MBq/kg i.v.
Protocol: as §1
Monkeys were anesthetized with intramuscular administration of ketamine (10 mg/kg) and xylazine (0.5 mg/kg) with isoflurane inhalation anesthesia. Planar and Single Photon Emission Computed Tomography (SPECT) imaging was performed in monkeys using a γ-camera system (E-cam, Siemens, Erlangen, Germany) immediately after administration to 1 h and at 3 and 24 h post-administration of [^211At]PSMA-5 (9 MBq/kg), targeting the X-rays emitted from the daughter nuclide ^211Po (energy window: 79 keV ± 20%). […]
Urine and feces samples were collected at each time point. […] Organ weights and radiation doses were measured using a γ-counter (model: 2480Wizard2, PerkinElmer) and γ-camera system (E-cam) by appropriate cross-calibration.

[3] = Hematological examination in mice; type: in vivo, ICR mice; conditions: for %Lymph / Hb / Ht / Platelet / RBC / WBC: mice
Protocol: as §1
A blood cell counter was used for the measurements (CB-1010; ARKRAY, Inc., Kyoto, Japan). Red blood cell count (RBC), hemoglobin concentration (Hb), hematocrit (Ht), white blood cell count (WBC), platelet count (platelet), lymphocytes (%Lymph), monocytes (%Mon), and granulocytes (%Gra) were calculated. Plasma was analyzed using a dry clinical chemistry analyzer (Spotchem D-00 QR D-02; ARKRAY, Inc., Kyoto, Japan). The levels of aspartate aminotransferase (AST), alanine aminotransferase (ALT), gamma-glutamyl transpeptidase (γ-GTP), lactate dehydrogenase (LDH), alkaline phosphatase (ALP), creatine kinase (CK), amylase (AMY), total bilirubin (TBIL), creatinine (CRE), urea nitrogen (BUN), glucose (GLU), total protein (TP), albumin (ALB), total cholesterol (TCHO), triglyceride (TG), and electrolytes (Na, K, and Cl) were measured.

[4] = Necropsy and histological evaluation in mice; type: in vivo, ICR mice
Protocol: as §1
The brain, salivary gland, thyroid, heart, lungs, liver, kidney, adrenal gland, pancreas, spleen, thymus, stomach, small intestine, large intestine, bladder, prostate, and testes were collected on days 1 or 14 in mice and at 24 h in monkeys. Additionally, the pituitary gland, tongue, trachea, esophagus, mesenteric lymph nodes, epididymis, seminal vesicles, skin, mammary glands, spinal cord, bone, bone marrow (femur), eyeball, and optic nerve were collected from the mice. After fixation, paraffin sections were prepared and stained with hematoxylin and eosin (HE). All the specimens were evaluated by an expert in toxic pathology using an integrated fluorescence microscope (BZ-X810; Keyence Corporation. Osaka, Japan). In mice, the brain, salivary glands, heart, lungs, liver, gallbladder, spleen, kidneys, and testes were weighed according to ICH S4 guideline.

[5] = mice, 12 MBq/kg, regarded as spontaneous lesion

## O=C(O)CC[C@H](NC(=O)N[C@@H](CCCCNC(=O)[C@@H](Cc1ccc2ccccc2c1)NC(=O)c1ccc(CNC(=O)[C@@H](CCC(=O)O)NC(=O)[C@@H](CCC(=O)O)NC(=O)Cc2ccc([211At])cc2)cc1)C(=O)O)C(=O)O [[^211At]PSMA-5]
[1]; ICR mice, 5 MBq/kg i.v.
  time of peak kidney uptake post-administration: 6 h
  time of peak thyroid gland uptake: 3 h
[1]; ICR mice, 5 MBq/kg i.v., 6 h
  cumulative fecal excretion: 3.03 ± 1.90 %ID
  cumulative urinary excretion: 4.85 ± 1.76 %ID
[1]; ICR mice, 5 MBq/kg i.v., 24 h
  cumulative fecal excretion: 24.07 ± 8.54 %ID
  cumulative urinary excretion: 18.89 ± 4.57 %ID
[1]; mice, 3 h post-administration
  uptake in the thyroid: 51 %ID/g
[2]
  cumulative fecal excretion: 11.27 %ID
  cumulative urinary excretion: 0.46 %ID
[3]; mice, 5, 12 and 35 MBq/kg, day 1 or day 14
  blood examination versus control group: no significant difference
[3]; 5 MBq/kg i.v., day 1
  %Lymph: 66.3 ± 15.8%
  Hb: 12.9 ± 0.4 g/dL
  Ht: 42.5 ± 1.4%
  Platelet: 976 ± 524 10^3 cell/µL
  RBC: 7.8 ± 0.3 10^6 cell/µL
  WBC: 6.3 ± 4.1 10^3 cell/µL
[3]; 5 MBq/kg i.v., day 14
  %Lymph: 70 ± 8.8%
  Hb: 14.4 ± 0.4 g/dL
  Ht: 45.4 ± 1%
  Platelet: 1120 ± 555 10^3 cell/µL
  RBC: 8.7 ± 0.2 10^6 cell/µL
  WBC: 6.9 ± 3.3 10^3 cell/µL
[3]; 12 MBq/kg i.v., day 1
  %Lymph: 62.6 ± 14.2%
  Hb: 13.0 ± 0.8 g/dL
  Ht: 42.6 ± 2.3%
  Platelet: 1329 ± 845 10^3 cell/µL
  RBC: 8.0 ± 0.5 10^6 cell/µL
  WBC: 8.3 ± 4.9 10^3 cell/µL
[3]; 12 MBq/kg i.v., day 14
  %Lymph: 59.9 ± 12.1%
  Hb: 13.8 ± 0.9 g/dL
  Ht: 43.9 ± 3%
  Platelet: 922 ± 608 10^3 cell/µL
  RBC: 8.3 ± 0.6 10^6 cell/µL
  WBC: 6.9 ± 1.9 10^3 cell/µL
[3]; 35 MBq/kg i.v., day 1
  %Lymph: 53.5 ± 16.9%
  Hb: 12.8 ± 0.7 g/dL
  Ht: 42.3 ± 2%
  Platelet: 952 ± 444 10^3 cell/µL
  RBC: 7.9 ± 0.3 10^6 cell/µL
  WBC: 8.0 ± 5.2 10^3 cell/µL
[3]; 35 MBq/kg i.v., day 14
  %Lymph: 53.9 ± 6.4%
  Hb: 13.6 ± 0.7 g/dL
  Ht: 43.1 ± 2.4%
  Platelet: 1331 ± 1037 10^3 cell/µL
  RBC: 8.4 ± 0.4 10^6 cell/µL
  WBC: 5.4 ± 2.8 10^3 cell/µL
[4]; expert evaluation
  gross findings during necropsy: no gross abnormalities beyond spontaneous lesions
[4]; mice, 5, 12 and 35 MBq/kg
  histological changes in the thyroid, testes, and kidneys compared to the control group: no significant changes
[4]; mice, 5-35 MBq/kg, day 1
  single-cell necrosis/apoptosis of crypt epithelial cells in pyloric glands of the stomach, duodenum, jejunum: dose-dependent increase
  tingible body macrophages in white pulp of the spleen and lymphoid follicles of mesenteric lymph nodes: dose-dependent increase
[4]; mice, 12 MBq/kg, day 1
  incidence of increased single-cell necrosis/apoptosis in striatal epithelial and serous cells of the salivary gland: 1/10
[4]; [5]
  incidence of atrophy of the seminal vesicles: 1/10
  incidence of intraperitoneal mass: 1/10
[4]; mice, 35 MBq/kg, day 1
  incidence of cortical lymphopenia in the thymus: 2/10
  incidence of decrease in bone marrow cells: 9/10
  incidence of increased single-cell necrosis/apoptosis in striatal epithelial and serous cells of the salivary gland: 7/10
[4]; mice, 35 MBq/kg, considered a spontaneously occurring lesion
  incidence of mild localized hepatocellular necrosis in the liver: 1/10
[4]; mice, day 14 post-administration
  degenerative changes in salivary glands, stomach, duodenum, jejunum, spleen, mesenteric lymph nodes, bone marrow, thymus: not observed
